Reference: patent publication US20040014794A1, “Use of hydroxypyridone-derivatives in wound healing” (priority 2002, published 2004)
Where a name gives a salt, the structure may show the parent alone. Read-outs that look alike come from different tables or passages of the source.

Columns and labels:
[1] = test system: HIF-1 target genes VEGF, glucose transporter-1 (Glut-1) and aldolase; test: Northern blotting of mRNA of endogenous HIF-1 target genes in HepG2 cells; type: cell-based, human; settings: HepG2 cells treated for 24, 48 and 72 hours; control genes L28 and β-actin not induced
Method: (§1) The HRCHO5 cells containing a stable transfected, HIF-1-dependent reporter gene were described previously (Wanner, R. M., et al. (2000), Epolones Induce Erythropoietin Expression Via Hypoxia-Inducible Factor-1α Activation, Blood 96, 1558-1565). The human HepG2 hepatoma cell line was obtained from American Type Culture Collection (ATCC numbers HB-8065). All cell lines were cultured in Dulbecco's modified Eagle's medium (DMEM, high glucose, Life Technologies) supplemented with 10% heat-inactivated FCS, 100 U/ml penicillin, 100 μg/ml streptomycin, 1× non-essential amino acids and 1 mM Na-pyruvate (all purchased from Life Technologies) in a humidified atmosphere containing 5% CO2 at 37° C. Oxygen partial pressures in the incubator (Forma Scientific, model 3131) were either 140 mm Hg (20% 02 v/v, normoxia) or 7 mm Hg (1% O2 v/v, hypoxia). Ciclopirox olamine (CPX), deferoxamine mesylate (DFX) and 2,2′-dipyridyl (DP) were purchased from Sigma. Stock solutions of CPX and DP were prepared in methanol at 0.5 M and 1 M, respectively. DFX was freshly dissolved at 10 mM into the cell culture medium.

HIF-1 = settings: systemically administered, mice; cited from earlier work
[2] = test system: gram-positive and gram-negative bacteria; settings: cited from earlier work
isolated rat kidneys = test: Isolated perfused rat kidney (ex vivo model)
Description: Systemically administered DFX can induce ubiquitous HIF-1 stability and kidney-specific erythropoietin expression in mice (Wang, G. L., and Semenza, G. L. (1993), Desferrioxamine Induces Erythropoietin Gene Expression and Hypoxia-Inducible Factor 1 DNA-Binding Activity: Implications for Models of Hypoxia Signal Transduction, Blood 82, 3610-3615). Regarding a topical application of CPX as a HIF-1-inducing agent for therapeutic angiogenesis, it was important to test whether CPX could lead to a systemic induction of VEGF. […]

rabbit skin = settings: 1% CPX solution applied on rabbit skin over 20 days; cited from earlier work
VEGF protein = test: Accumulation of VEGF protein in the supernatant of the HepG2 cell culture; type: cell-based, human; settings: following 6 or 24 hours of treatment
Method: as §1

[3] = test system: chicken chorioallantoic membrane (CAM)
Method: CAM assays were performed as described by Olivo, M. et al. (A Comparative Study on The Effects of Tumor Necrosis Factor-A (TNF-α), Human Angiogenic Factor (h-AF) and Basic Fibroblast Growth Factor (bFGF) on the Chorioallantoic Membrane of the Chick Embryo, (1992) Anat. Rec. 234, 105-115). Briefly, fertilized eggs (purchased from Lohmann Tierzucht, Cuxhaven, Germany) were incubated at 37° C. in a humidified atmosphere. The eggs were kept on their sides and turned upside down twice a day. After 6 days, a small hole was drilled through the shell into the air sac (visualized using a strong light source) and a window of approximately 0.5 cm^2 was sawed into the side of the egg. The window was sealed with tape and the eggs were reincubated until day 9, when 6-cyclohexyl-1-hydroxy-4-methyl-2(1H)-pyridone 2-aminoethanol salt (CPX) was applied to the CAM using the Elvax® method (see Olivo, M. et al. above). Therefore, ethylene/vinyl acetate copolymer beads (Elvax®) 40L-03, DuPont, provided by C. H. Erbslöh KG, Krefeld, Germany) were extensively washed in ethanol and dried under reduced pressure. The Elvax® beads were then dissolved in methylene chloride at 10% (w/v) and CPX was added to the desired concentration. One drop (40 μL) of this solution was pipetted onto a siliconized glass slide and the solvent was allowed to evaporate completely. Using forceps, the Elvax® disc was carefully lifted from the glass slides and placed onto the CAM. At day 11, the window was enlarged and the CAM was documented using a digital camera (Olympus) coupled to an ocular of a stereomicroscope.
Therefore, the chicken CAM at day 9 of development was overlaid with inert polymer discs containing various concentrations of CPX or solvent only.

NMRI mice = test: Mouse skin wound model (punch-through ear holes); settings: dermal cream containing 1% CPX, daily
Method: Both ears of adult NMRI mice were wounded under anesthesia with 100 mg/kg ketamine (Narketan®) and 5 mg/kg xylazine (Rompun®) by punch-through holes of 2 mm diameter using a standard ear-punching tool. The ears were treated daily with a common skin cream containing (Batrafen®) or not containing 1% (w/v) CPX. One ear was treated with CPX and the other ear with the control cream. The amount of cream was sufficient to cover the hole and was equally distributed over the entire ear.
Punch-through ear holes of 2 mm diameter (a widespread way of marking mice in animal facilities) were treated daily with a commercially available dermal cream containing 1% CPX on one ear and a CPX-free but otherwise identical common dermal cream on the other ear, respectively.

VEGF promoter = test: VEGF promoter-driven luciferase reporter gene assay in transiently transfected HepG2 cells; type: cell-based, human; settings: increasing concentrations of CPX for 24 hours
Method: The HRCHO5 cells containing a stable transfected, HIF-1-dependent reporter gene were described previously (Wanner, R. M., et al. (2000), Epolones Induce Erythropoietin Expression Via Hypoxia-Inducible Factor-1α Activation, Blood 96, 1558-1565). The human HepG2 hepatoma cell line was obtained from American Type Culture Collection (ATCC numbers HB-8065). All cell lines were cultured in Dulbecco's modified Eagle's medium (DMEM, high glucose, Life Technologies) supplemented with 10% heat-inactivated FCS, 100 U/ml penicillin, 100 μg/ml streptomycin, 1× non-essential amino acids and 1 mM Na-pyruvate (all purchased from Life Technologies) in a humidified atmosphere containing 5% CO2 at 37° C. […]
HepG2 cells were transiently electroporated with a VEGF promoter-driven luciferase construct as described previously (Ikeda, E., et al. (1995), Hypoxia-Induced Transcriptional Activation and Increased mRNA Stability of Vascular Endothelial Growth Factor in C6 Glioma Cells, J. Biol. Chem. 270, 19761-19766). Following stimulation, transiently and stable transfected cells were lysed in passive lysis buffer (Promega) and the luciferase activity was determined using a luciferase assay kit according to the manufacturer's instructions (Promega) in a 96-well luminometer (MicroLumat LB96P, EG&G Berthold). […] Absorbances at 570 nm were determined in a 96-well photometer (Rainbow, SLT Labsystems). […]

HIF-1α protein = HIF-1α protein induction in HepG2 hepatoma cells; type: cell-based, human; settings: for HIF-1α levels, combination with hypoxia: CPX plus hypoxia (1% O2)
Method: as §1

[4] = higher CPX concentrations (33 μM and 100 μM)
[5] = perfused 3 hours, normoxic, 0.1 μM to 100 μM

Q: With `c1ccc(-c2ccccn2)nc1` [DP, 2,2′-dipyridyl] as the compound, how does the “expression of VEGF mRNA” value [1] read?
A: Its value is “induced”.

Q: What about the “expression of aldolase mRNA” value [1] of the same compound?
A: The value was “induced”.

Q: What about the “expression of glucose transporter-1 (Glut-1) mRNA” value [1] of the same compound?
A: Its value is “induced”.

Q: Which results are given for `CC(=O)N(O)CCCCCNC(=O)CCC(=O)N(O)CCCCCNC(=O)CCC(=O)N(O)CCCCCN` [DFX, deferoxamine mesylate]?
A: expression of VEGF mRNA [1]: induced; expression of aldolase mRNA [1]: induced; expression of glucose transporter-1 (Glut-1) mRNA [1]: induced; kidney-specific erythropoietin expression (HIF-1): can induce; ubiquitous HIF-1 stability (HIF-1): can induce

Q: Which results are given for `Cc1cc(C2CCCCC2)n(O)c(=O)c1.NCCO` [CPX, 6-cyclohexyl-1-hydroxy-4-methyl-2(1H)-pyridone 2-aminoethanol salt]?
A: effectiveness against gram-positive and gram-negative bacteria [2]: effective; albumin and sodium excretion rates (isolated rat kidneys; [4]): strong increase; kidney function (isolated rat kidneys; [4]): down regulation; Glut-1 mRNA level (isolated rat kidneys; [5]): did not induce; VEGF mRNA level (isolated rat kidneys; [5]): did not induce; aldolase mRNA level (isolated rat kidneys; [5]): did not induce; Glut-1 mRNA level under hypoxic perfusion (isolated rat kidneys; perfusion with 3% oxygen for 3 hours plus CPX): not further elevated; expression of VEGF mRNA [1]: induced; expression of aldolase mRNA [1]: induced; expression of glucose transporter-1 (Glut-1) mRNA [1]: induced; reddening of experimentally wounded skin (rabbit skin): persistent reddening; reddening of healthy skin (rabbit skin): occasionally transient reddening; VEGF protein in the supernatant (VEGF protein): increased in a dose-dependent manner; number of CAMs showing angiogenesis ([3]; 50 mM CPX, all 7 control CAMs lacked angiogenesis): 10; CAM angiogenesis ([3]; polymer discs containing 5 mM CPX): indistinguishable from the controls; CAM angiogenesis ([3]; polymer discs containing 50 mM CPX, two days of incubation): consistently induced CAM angiogenesis; toxicity to the chick embryo ([3]; polymer discs containing 500 mM CPX): toxic; animals showing reddening of the wound margin (NMRI mice): 4 of 10; reddening of the wound margin (NMRI mice): can cause reddening; angiogenesis in mouse skin wound model (NMRI mice; ear holes of 2 mm diameter): can induce angiogenesis; luciferase activity (1180 bp VEGF promoter fragment) (VEGF promoter): dose-dependent increase; HIF-1α protein (HIF-1α protein; 5 μM to 20 μM, normoxic HepG2 cells, after 6 and 24 hours of treatment): strongly induced; HIF-1α levels, combination with hypoxia (HIF-1α protein; after 6 hours): did not further increase; HIF-1α levels, combination with hypoxia (HIF-1α protein; after 24 hours of treatment): decreased
